# Laboratory results: patent publication US6482948B1, “Thienopyrimidine compounds and salts thereof and process for the preparation of the same” (Nippon Soda Co., Ltd., priority 1999, dated 2002)
# Key:
# [1] = system: thoracic aortas; experiment: Vasodilating activity, phenylephrine-contracted thoracic aorta ring preparations (Magnus method); set-up: species or system Sprague-Dawley male rats; conditions: rat thoracic aorta ring preparations contracted with 1 μM phenylephrine, 37° C., drug added cumulatively
# Experimental: Pharmacological Test Example 2: Vasodilating Activity
# A vasodilating activity was assessed according to the method of Ken-ichi Hirata and Mitsuhiro Yokoyama (Arteriosclerosis and Hyperlipemia Research Strategies, published by Shujunsha (Japan), pages 275-277, 1996): The thoracic aortas were extracted from Sprague-Dawley male rats (weighing 180 to 360 g). After unnecessary connective tissues were removed, the aortas were cut to 5mm-long pieces to make ring strip preparations, and assessed by the Magnus method (37° C.). A nutrient solution used was a Krebs-Henseleit solution aerated with 5% carbon dioxide gas and 95% oxygen gas. Specimens were equilibrated for about 60 minutes, and then contracted by adding 1 μM of phenylephrine. 1 μM of acetylcholine was added at the second phenylepherine-induced contraction in order to confirm an endothelial cell dependent relaxation response. At the third phenylepherine-induced contraction, a drug to test was added cumulatively, and the relaxation action was observed. Drugs to test were all dissolved in DMSO to use for the tests. The tested drugs were assessed by 50% relaxation rates (EC50) obtained from vasodilation rates to respective concentrations (the maximum relaxation was measured by adding 100 μM of papaverine).
# [2] = target: PDE 1 (Ca-calmodulin activatable PDE); experiment: Phosphodiesterase inhibiting activity, PDE 1; format: biochemical; conditions: isozyme from dog heart; 1 μM [3H]-cAMP or [3H]-cGMP; read-out: Inhibition of PDE Activity: IC50 PDE 1
# Experimental: (§1) Pharmacological Test Example 1: Phosphodiesterase Inhibiting Activity
# (§2) Cyclic nucleotide phosphodiesterases from human platelets and from the heart and kidney of a dog were eluted by the concentration gradient method with 70 to 1000 mM of sodium acetate on DEAE-cellulose column chromatography (Whatman Co. Ltd., DE-52, φ3.2×13 cm) according to the method of Thompson and others (Thompson W. J., et al., Advances in Cyclic Nucleotide Research: 10, 69-92, 1979), and separated into isozymes. PDE 5 (cGMP specific PDE) and PDE 3 (cGMP inhibitable cAMP PDE) were separated from the platelets, PDE 1 (Ca-calmodulin activatable PDE) from the heart, and PDE 4 (cGMP non-inhibitable cAMP PDE) from the kidney. The method of Thompson, et al was partially modified to measure phosphodiesterase activities: 1 μM of [3H]-cAMP or [3H]-cGMP was decomposed with phosphodiesterase. The produced 5′-AMP or 5′-GMP was decomposed to adenosine or guanosine with a snake venom (Sigma V7000). The reaction solution was added to anion exchange resin (Bio-Rad Co. Ltd., AG1-X8). Non-adsorbed adenosine or guanosine was counted by a liquid scintillation counter. A concentration causing 50% inhibition of the enzyme activity (IC50) was calculated from concentration inhibition curves.
# [3] = target: T1, PDE 2 (Homo sapiens, UniProt O00408); experiment: Phosphodiesterase inhibiting activity, PDE 2; format: biochemical; conditions: 1 μM [3H]-cAMP or [3H]-cGMP; source of isozyme not given; read-out: Inhibition of PDE Activity: IC50 PDE 2
# T1 construct: eluted by the concentration gradient method with 70 to 1000 mM of sodium acetate on DEAE-cellulose column chromatography; from tissue
# T1 sequence (O00408 whole entry): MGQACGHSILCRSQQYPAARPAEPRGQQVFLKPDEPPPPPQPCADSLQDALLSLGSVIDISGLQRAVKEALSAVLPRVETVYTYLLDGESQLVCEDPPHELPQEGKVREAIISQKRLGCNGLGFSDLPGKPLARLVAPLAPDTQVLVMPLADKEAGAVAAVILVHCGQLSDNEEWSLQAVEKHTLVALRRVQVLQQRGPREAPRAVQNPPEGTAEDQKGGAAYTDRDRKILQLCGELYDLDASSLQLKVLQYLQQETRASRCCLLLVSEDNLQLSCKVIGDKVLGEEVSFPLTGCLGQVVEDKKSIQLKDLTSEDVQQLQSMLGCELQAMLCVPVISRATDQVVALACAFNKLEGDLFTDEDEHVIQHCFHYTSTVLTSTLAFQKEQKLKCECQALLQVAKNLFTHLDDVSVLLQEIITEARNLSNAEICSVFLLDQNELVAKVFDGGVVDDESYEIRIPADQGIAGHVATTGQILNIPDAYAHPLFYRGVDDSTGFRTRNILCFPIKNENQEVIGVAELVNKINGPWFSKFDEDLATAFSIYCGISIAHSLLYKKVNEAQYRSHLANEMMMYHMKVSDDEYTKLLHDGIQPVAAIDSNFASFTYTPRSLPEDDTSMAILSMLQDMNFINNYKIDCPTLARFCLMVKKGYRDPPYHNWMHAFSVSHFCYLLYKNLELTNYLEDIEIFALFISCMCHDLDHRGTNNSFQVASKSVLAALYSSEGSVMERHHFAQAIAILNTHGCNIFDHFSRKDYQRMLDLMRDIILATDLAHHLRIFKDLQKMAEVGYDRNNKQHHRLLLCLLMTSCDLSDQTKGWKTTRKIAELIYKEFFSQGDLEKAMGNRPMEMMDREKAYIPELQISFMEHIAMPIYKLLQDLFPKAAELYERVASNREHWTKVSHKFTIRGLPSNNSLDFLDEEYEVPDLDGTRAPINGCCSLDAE
# Experimental: [Worded in the source for another target; this target is reported under the same test.] as §1, §2
# [4] = target: T2, PDE 3 (cGMP inhibitable cAMP PDE) (Homo sapiens, UniProt Q14432); experiment: Phosphodiesterase inhibiting activity, PDE 3; format: biochemical; conditions: isozyme from human platelets; 1 μM [3H]-cAMP or [3H]-cGMP; read-out: Inhibition of PDE Activity: IC50 PDE 3
# T2 construct: from tissue; host or cells: human platelets
# T2 sequence (Q14432 whole entry): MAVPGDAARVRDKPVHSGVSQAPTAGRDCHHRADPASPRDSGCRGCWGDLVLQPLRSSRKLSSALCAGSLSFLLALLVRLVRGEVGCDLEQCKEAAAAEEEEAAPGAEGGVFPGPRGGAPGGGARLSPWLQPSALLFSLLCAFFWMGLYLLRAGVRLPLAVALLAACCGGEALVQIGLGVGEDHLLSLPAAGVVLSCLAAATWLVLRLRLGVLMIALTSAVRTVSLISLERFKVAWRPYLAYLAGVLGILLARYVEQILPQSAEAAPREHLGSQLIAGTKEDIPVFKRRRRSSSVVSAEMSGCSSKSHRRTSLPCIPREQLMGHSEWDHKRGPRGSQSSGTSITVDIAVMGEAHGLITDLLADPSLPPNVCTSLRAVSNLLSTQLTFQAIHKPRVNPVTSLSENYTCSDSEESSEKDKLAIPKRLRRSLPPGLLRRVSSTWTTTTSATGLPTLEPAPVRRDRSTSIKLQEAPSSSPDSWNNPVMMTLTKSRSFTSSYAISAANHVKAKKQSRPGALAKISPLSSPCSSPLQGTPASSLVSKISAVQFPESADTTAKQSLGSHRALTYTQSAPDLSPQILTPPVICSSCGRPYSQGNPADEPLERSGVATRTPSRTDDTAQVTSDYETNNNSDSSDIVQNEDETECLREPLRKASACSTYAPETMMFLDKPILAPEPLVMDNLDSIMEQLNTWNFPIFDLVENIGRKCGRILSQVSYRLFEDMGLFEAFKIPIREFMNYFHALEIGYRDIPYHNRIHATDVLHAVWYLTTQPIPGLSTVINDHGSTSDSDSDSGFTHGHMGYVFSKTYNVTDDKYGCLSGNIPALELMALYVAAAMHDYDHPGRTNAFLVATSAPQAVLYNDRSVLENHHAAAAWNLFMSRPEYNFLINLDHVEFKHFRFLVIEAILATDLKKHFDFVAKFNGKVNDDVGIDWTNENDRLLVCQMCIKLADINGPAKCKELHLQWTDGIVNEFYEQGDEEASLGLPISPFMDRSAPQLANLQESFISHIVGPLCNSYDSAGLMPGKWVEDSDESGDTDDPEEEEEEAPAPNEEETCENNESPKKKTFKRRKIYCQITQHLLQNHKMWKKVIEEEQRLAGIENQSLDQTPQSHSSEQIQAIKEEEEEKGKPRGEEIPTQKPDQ
# Experimental: as §1, §2
# [5] = target: PDE 4 (cGMP non-inhibitable cAMP PDE); experiment: Phosphodiesterase inhibiting activity, PDE 4; format: biochemical; conditions: isozyme from dog kidney; 1 μM [3H]-cAMP or [3H]-cGMP; read-out: Inhibition of PDE Activity: IC50 PDE 4
# Experimental: as §1, §2
# [6] = target: T3, PDE 5 (cGMP specific PDE) (Homo sapiens, UniProt O76074); experiment: Phosphodiesterase inhibiting activity, PDE 5; format: biochemical; conditions: isozyme from human platelets; 1 μM [3H]-cAMP or [3H]-cGMP; read-out: Inhibition of PDE Activity: IC50 PDE 5
# T3 construct: from tissue; host or cells: human platelets
# Experimental: as §1, §2
Structure (SMILES),EC50 [1],IC50 [2],IC50 [3],IC50 [4],IC50 [5],IC50 [6],melting point
COc1ccc(CNc2nc(C(=O)Nc3ccccc3)nc3sc4c(c23)CCCC4)cc1Cl [3-2],–,> 10000 nM,> 10000 nM,> 10000 nM,> 10000 nM,0.39 nM,210 to 211 °C
COC(=O)CNC(=O)c1nc(NCc2ccc(OC)c(Cl)c2)c2c3c(sc2n1)CN(C(C)C)CC3 [1-54],19 nM,> 10000 nM,> 10000 nM,≥ 10000 nM,> 10000 nM,33 nM,155 to 157 °C
COc1ccc(CNc2nc(C(=O)NC3CCCCC3)nc3sc4c(c23)CCN(C)C4)cc1Cl [1-63],4.8 nM,> 10000 nM,> 10000 nM,> 10000 nM,> 10000 nM,0.38 nM,–
COc1ccc(CNc2nc(C(=O)Nc3ccccc3)nc3sc4c(c23)CCN(Cc2ccccc2)C4)cc1Cl [1-67],82 nM,> 10000 nM,> 10000 nM,> 10000 nM,> 10000 nM,0.39 nM,–
COc1ccc(CNc2nc(C(=O)Nc3ccccc3Cl)nc3sc4c(c23)CCN(C)C4)cc1Cl [1-60],7.5 nM,> 10000 nM,> 10000 nM,> 10000 nM,3600 nM,14 nM,–
CCOC(=O)Cc1nc(NCc2ccc(OC)c(Cl)c2)c2c3c(sc2n1)C(=O)N(C(C)C)CC3 [2-10],18 nM,> 10000 nM,> 10000 nM,7400 nM,8000 nM,39 nM,–
CCOc1ccccc1NC(=O)c1nc(NCc2ccc(OC)c(Cl)c2)c2c3c(sc2n1)CN(C(C)C)CC3 [1-55],180 nM,> 10000 nM,> 10000 nM,> 10000 nM,2000 nM,62 nM,–
COc1ccc(NC(=O)c2nc(NCc3ccc(OC)c(Cl)c3)c3c4c(sc3n2)CN(C)CC4)cc1 [1-62],7.2 nM,> 10000 nM,> 10000 nM,> 10000 nM,> 10000 nM,2.4 nM,–
COC(=O)c1ccc(NC(=O)c2nc(NCc3ccc(OC)c(Cl)c3)c3c4c(sc3n2)CN(C)CC4)cc1 [1-80],25 nM,> 10000 nM,3300 nM,> 10000 nM,4100 nM,53 nM,–
COc1ccc(CNc2nc(C(=O)NC3CC3)nc3sc4c(c23)CCN(C(C)C)C4)cc1Cl [1-76],26 nM,> 10000 nM,> 10000 nM,> 10000 nM,> 10000 nM,56 nM,112 to 114 °C
COc1ccc(CNc2nc(C(=O)Nc3ccncc3)nc3sc4c(c23)CCN(C)C4)cc1Cl [1-58],5.1 nM,> 10000 nM,> 10000 nM,> 10000 nM,> 10000 nM,2.1 nM,–
"COc1ccc(CNc2nc(-c3cccnc3)nc3sc4c(c23)CCN(C(C)=O)C4)cc1Cl [1-9, 5,6,7,8-tetrahydro-4-[(3-chloro-4-methoxy)benzylamino]-7-acetyl-2-(3-pyridyl)pyrido[4′,3′:4,5]thieno[2,3-d]pyrimidine]",6.3 nM,–,–,–,–,–,226 to 227 °C
COc1ccc(CNc2nc(C(=O)Nc3ccccc3)nc3sc4c(c23)CCN(C)C4)cc1Cl [1-72],7.4 nM,> 10000 nM,> 10000 nM,> 10000 nM,> 10000 nM,1.8 nM,–
COc1ccc(CNc2nc(C(=O)Nc3nccs3)nc3sc4c(c23)CCN(C)C4)cc1Cl [1-57],2.7 nM,> 10000 nM,> 10000 nM,> 10000 nM,> 10000 nM,0.55 nM,–
COC(=O)c1nc(NCc2ccc(OC)c(Cl)c2)c2c3c(sc2n1)CN(Cc1ccccc1)CC3 [1-65],260 nM,> 10000 nM,> 10000 nM,> 10000 nM,> 10000 nM,91 nM,168 to 170 °C

# Second part, the compound after the results:
EC50 [1],IC50 [2],IC50 [3],IC50 [4],IC50 [5],IC50 [6],melting point,Structure (SMILES)
2.1 nM,–,–,–,–,–,–,"CCOC(=O)N1CCc2c(sc3nc(-c4cccnc4)nc(NCc4ccc(OC)c(Cl)c4)c23)C1 [1-15, 5,6,7,8-tetrahydro-4-[(3-chloro-4-methoxy)benzylamino]-7-ethoxycarbonyl-2-(3-pyridyl)pyrido[4′,3′:4,5]thieno[2,3-d]pyrimidine]"
86 nM,> 10000 nM,3900 nM,> 10000 nM,> 10000 nM,0.92 nM,–,COc1ccc(CNc2nc(-c3ccc4c(c3)OCO4)nc3sc4c(c23)CCN(Cc2ccccc2)C4)cc1Cl [1-1]
9.5 nM,> 10000 nM,2000 nM,5400 nM,3700 nM,2.4 nM,118 to 120 °C,COc1ccc(CNc2nc(-c3ccncc3)nc3sc4c(c23)CCN(C)C4)cc1Cl [1-7]
8.7 nM,> 10000 nM,> 10000 nM,> 10000 nM,> 10000 nM,0.92 nM,–,"COc1ccc(CNc2nc(C(=O)Nc3ccc(Cl)cc3)nc3sc4c(c23)CCN(C)C4)cc1Cl [1-61, 5,6,7,8-tetrahydro-4-[(3-chloro-4-methoxy)benzylamino]-7-methylpyrido[4′,3′:4,5]thieno[2,3-d]pyrimidine-2-N-(4-chlorophenyl)carboxamide]"
19 nM,> 10000 nM,2700 nM,6100 nM,2000 nM,2.6 nM,–,COc1ccc(CNc2nc(-c3cccnc3)nc3sc4c(c23)CCN(Cc2ccccc2)C4)cc1Cl [1-4]
18 nM,670 nM,> 10000 nM,> 10000 nM,5100 nM,16 nM,–,COc1ccc(CNc2nc(C(=O)NCc3ccccc3)nc3sc4c(c23)CCN(C)C4)cc1Cl [1-79]
18 nM,> 10000 nM,> 10000 nM,> 10000 nM,> 10000 nM,31 nM,–,"CCOC(=O)c1nc(NCc2ccc(OC)c(Cl)c2)c2c3c(sc2n1)CN(C)CC3 [1-69, ethyl 5,6,7,8-tetrahydro-4-[(3-chloro-4-methoxy)benzylamino]-7-methylpyrido[4′,3′:4,5]thieno[2,3-d]pyrimidine-2-carboxylate]"
8.1 nM,> 10000 nM,> 10000 nM,> 10000 nM,2500 nM,0.54 nM,218 to 220 °C,CCOC(=O)N1CCc2c(sc3nc(-c4ccncc4)nc(NCc4ccc(OC)c(Cl)c4)c23)C1 [1-5]
7.6 nM,> 10000 nM,6100 nM,7600 nM,3400 nM,78 nM,–,COc1ccc(CNc2nc(C(=O)Nc3ccc(-n4ccnc4)cc3)nc3sc4c(c23)CCN(C)C4)cc1Cl [1-59]
–,1300 nM,3100 nM,> 10000 nM,> 10000 nM,75 nM,–,COc1ccc(CNc2nc(C(N)=O)nc3sc4c(c23)CCN(C)C4)cc1Cl [1-83]
16 nM,5500 nM,> 10000 nM,> 10000 nM,3600 nM,50 nM,90 to 92 °C,COc1ccc(CNc2nc(-c3ccco3)nc3sc4c(c23)CCN(C)C4)cc1Cl [1-6]
9.3 nM,> 10000 nM,> 10000 nM,> 10000 nM,8400 nM,1.4 nM,–,COc1ccc(CNc2nc(C(=O)Nc3ccccc3)nc3sc4c(c23)CCN(C(C)C)C4)cc1Cl [1-75]
